Source: patent US10442779B2, “Compositions and methods for treating Friedreich's ataxia” (Fratagene Therapeutics S.R.L., priority 2014, dated 2019)

Key:
[1] = molecular target: T1, frataxin^1-210 in HEK-293 Flp-In cells (293-frataxin) (Homo sapiens, UniProt Q16595); test: Frataxin precursor / mature frataxin accumulation in 293-frataxin cells (western blot); type: cell-based; settings: 10 μM; for frataxin precursor accumulation: 24 hrs, compared with UCM2 and MG132; for mature frataxin accumulation: 72 hrs (3 days)
T1 construct: 293 Flp-In cells stably expressing frataxin^1-210 were treated for 24 hrs; expressed in transfected cells
T1 sequence (Q16595 42-210): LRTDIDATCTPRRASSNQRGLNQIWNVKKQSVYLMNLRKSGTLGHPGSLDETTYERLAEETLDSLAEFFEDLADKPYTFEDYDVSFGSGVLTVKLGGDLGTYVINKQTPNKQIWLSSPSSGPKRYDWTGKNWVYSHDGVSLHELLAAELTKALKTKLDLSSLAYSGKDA
Description: (§1) Cell culture and transfections. Human embryonic kidney HEK-293 cells were cultured in Dulbecco's modified Eagle's medium (DMEM) supplemented with 10% fetal bovine serum (FBS). HEK-293 cells were transfected using Lipofectamine 2000 reagents (Invitrogen), according to the manufacturer's instructions. Cells were plated on 6 cm dishes and transfected with 8 μg of total DNA (4 μg of pIRES-frataxin and 4 μg of HA-Ub). The day after transfection, cells were treated for 24 h with 10 μM UCM together with 10 μM proteasome inhibitor MG132 and 50 ng/ml deubiquitinating enzyme (DUB) inhibitor Ub-aldehyde. HEK-293 Flp-In cells (Invitrogen) are HEK-293 variants allowing the stable and isogenic integration and expression of a transfected gene. The HEK-293 clones stably expressing frataxin^1-210 or frataxin^K147R were previously described (Condo et al., 2007; Rufini et al., 2011). FRDA 214 (GM16214) and FRDA 798 (GM16798) lymphoblasts, from clinically affected FRDA patients, as well as FRDA 215 (GM16215) and FRDA 241 (GM16241) lymphoblasts, from the correspondent heterozygous clinically unaffected sibling, were obtained from Coriell Cell Repositories (Camden, N.J., USA) and were cultured in RPMI supplemented with 15% FBS.
(§2) Immunoblotting. Total cell extracts were prepared in IP buffer (50 mM Tris-HCl, pH 7.5, 150 mM NaCl, 1% Nonidet P-40, 5 mM EDTA, 5 mM EGTA) supplemented with Complete protease inhibitor cocktail (Roche Diagnostics). For in vivo detection of ubiquitin conjugates, 10 μM MG132, 50 ng/ml Ub-aldehyde and 2 mM NEM were added to the lysis buffer. Protein extract (50 μg) was separated by 12% SDS-PAGE, blotted onto a nitrocellulose membrane and detected with specific antibodies. The immunoreactive bands were detected by ECL (GE Healthcare) and imaged with a ChemiDoc XRS system (Bio-Rad Laboratories). Densitometric analysis was performed using the ImageLab 4.1 Software (Bio-Rad Laboratories).
UCMs increase frataxin levels. To validate UCM activity, UCMs were tested their effect in human HEK-293 cells stably expressing single copy frataxin (293-frataxin). These cells allow the detection of all forms of frataxin, including the frataxin precursor. Compounds that were able to enhance frataxin precursor levels were synthesized, further chemically modified according to the docking model and tested again in 293-frataxin. Approximately 200 new candidate UCMs were tested in functional assays. Through this iterative process, new UCMs that promote frataxin precursor with surprising efficiency were identified.
293 Flp-In cells stably expressing frataxin^1-210 were treated for 24 hrs with 10 μM of the indicated UCM or 10 μM MG132 (MG). Total cell extracts were resolved on SDS-PAGE and analyzed with anti-frataxin antibody, or anti-tubulin, as a loading control. Pre: precursor; tub: tubulin.
293 Flp-In cells stably expressing frataxin^1-210 were treated for 72 hrs with 10 μM of the indicated UCM. Total cell extracts were resolved on SDS-PAGE and analyzed with anti-frataxin antibody, or anti-tubulin, as a loading control. Pre: precursor, int: intermediate, mat: mature; tub: tubulin.

frataxin ubiquitination = molecular target: T2, frataxin ubiquitination (Homo sapiens, UniProt Q16595); test: In vivo (in-cell) frataxin ubiquitination assay in HEK-293 cells co-transfected with HA-Ub and frataxin; type: cell-based; settings: HEK-293, HA-Ub + frataxin^1-210, 10 μM UCM, with MG132 and Ub-aldehyde
T2 construct: 293 cells were transiently co-transfected with HA-Ub and frataxin^1-210; expressed in transfected cells; host or cells: HEK-293 cells, transient transfection (pIRES-frataxin plus HA-Ub)
T2 sequence (Q16595 42-210): T1 sequence (Q16595 42-210)
Description: Cell culture and transfections. Human embryonic kidney HEK-293 cells were cultured in Dulbecco's modified Eagle's medium (DMEM) supplemented with 10% fetal bovine serum (FBS). HEK-293 cells were transfected using Lipofectamine 2000 reagents (Invitrogen), according to the manufacturer's instructions. Cells were plated on 6 cm dishes and transfected with 8 μg of total DNA (4 μg of pIRES-frataxin and 4 μg of HA-Ub). The day after transfection, cells were treated for 24 h with 10 μM UCM together with 10 μM proteasome inhibitor MG132 and 50 ng/ml deubiquitinating enzyme (DUB) inhibitor Ub-aldehyde. […]
Immunoblotting. […] Protein extract (50 μg) was separated by 12% SDS-PAGE, blotted onto a nitrocellulose membrane and detected with specific antibodies. The immunoreactive bands were detected by ECL (GE Healthcare) and imaged with a ChemiDoc XRS system (Bio-Rad Laboratories). […]
UCMs prevent frataxin ubiquitination. To test whether the new compounds promote frataxin accumulation by preventing its ubiquitin/proteasome-dependent degradation, their impact on frataxin ubiquitination was evaluated. […] The ubiquitination status of frataxin was evaluated by SDS-PAGE of total cell lysates and anti-frataxin immunoblotting. […] Ubiquitination level was measured as the ratio between the levels of ubiquitinated frataxin and frataxin precursor. […]

[2] = molecular target: T3, Human recombinant frataxin precursor (aa 1-210) (Homo sapiens, UniProt Q16595); test: Steady-state Trp fluorescence binding of UCMs to recombinant frataxin precursor; settings: for change of protein Trp fluorescence (ΔF/F0): 2 μM frataxin precursor, ligand 0.5 to 25 μM, 20° C; for half-saturation binding constant, L1/2: 2 μM native frataxin precursor, numbers only in FIG. 5
T3 construct: Human recombinant frataxin precursor (aa 1-210) was expressed and purified; purchased GenScript Corp., N.J., USA
T3 sequence (Q16595 1-210): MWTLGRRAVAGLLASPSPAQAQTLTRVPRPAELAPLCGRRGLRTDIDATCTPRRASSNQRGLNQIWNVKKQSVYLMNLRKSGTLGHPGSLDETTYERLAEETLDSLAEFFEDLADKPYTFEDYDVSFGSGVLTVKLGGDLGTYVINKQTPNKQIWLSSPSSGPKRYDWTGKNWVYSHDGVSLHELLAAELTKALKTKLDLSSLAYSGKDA
Description: Steady-state fluorescence measurements. Human recombinant frataxin precursor (aa 1-210) was expressed and purified by GenScript Corp., N.J., USA. Steady-state fluorescence spectra were recorded at 20° C. using an ISS PC1 fluorometer (Iss Inc, Champain, Ill. Usa). The affinity of frataxin for the ligands studied in this paper was determined by monitoring the decrease in Trp fluorescence upon the addition of these molecules to solutions. The concentration of the protein was 2 μM while the concentration of the ligands varied from 0.5 to 25 μM. At the excitation wavelength of 280 nm, emission spectra were recorded between 290 and 440 nm, using a 4×4 mm path-length quartz fluorescence microcuvette (Hellma GmbH & Co., Müllheim/Baden, Germany). The spectra were corrected using an instrument correction curve obtained with standard fluorescent compounds such as N-acetyl tryptophanamide (NATA). All measurements were also corrected for the inner-filter effect. To simulate the absorption of ligand molecules at the excitation and the emission wavelengths, two cuvettes (2 mm optical length), containing a solution of ligands in buffer, were placed along the excitation and emission pathways. The fluorescence of NATA was thus measured varying the concentration of quencher and four correction curves (one for each ligand) were obtained.
Data were then plotted as fractional loss of Trp fluorescence (ΔF/F0) versus ligand concentration. Experimental data were analyzed by nonlinear regression through a hyperbolic binding isotherm, using the Kaleidagraph program (Synergy Software).
UCMs interact with frataxin. Ubiquitin-competing molecules were selected through structure-based virtual screening for their potential ability to interact with frataxin on its ubiquitination site. Since they are in fact able to prevent frataxin ubiquitination and to interfere with its K147-dependent degradation, confirmation of their ability to physically interact with frataxin was sought. Therefore, the interaction propensities of frataxin with these molecules were investigated by fluorescence spectroscopy through the analysis of the changes of the signal of the protein tryptophan residues in the presence of the different compounds.
The graphs represent the fractional loss of the protein fluorescence intensity (ΔF/F0), in the presence of different concentration of ligand, versus the ratio between ligand and frataxin. The interaction with UCM53 was also analyzed in the case of frataxin precursor previously denaturated in 3M guanidinium hydrochloride (lower right panel). The half-saturation binding constant, L1/2 (μM), of frataxin precursor with different UCM is indicated in each panel.

[3] = molecular target: T4, frataxin in FRDA 798 and FRDA 214 lymphoblasts (Homo sapiens, UniProt Q16595); test: Frataxin accumulation in FRDA patient-derived lymphoblasts FRDA 798 and FRDA 214 (western blot); type: cell-based; settings: for mature frataxin accumulation in FRDA patient cells: FRDA 798 and FRDA 214 lymphoblasts, 10 μM, 5 days, vs vehicle
T4 construct: GM16798; host or cells: FRDA 798, FRDA 214 and FRDA 203 patient-derived lymphoblasts
T4 sequence (Q16595 42-210): T1 sequence (Q16595 42-210)
Description: as §1
as §2, with “For in vivo detection of ubiquitin conjugates, 10 μM MG132, 50 ng/ml Ub-aldehyde and 2 mM NEM were added to the lysis buffer.” left out, “Densitometric analysis was performed using the ImageLab 4.1 Software (Bio-Rad Laboratories).” left out
UCM compounds promote frataxin accumulation in FRDA cells and rescue the aconitase defect. […] Frataxin levels were quantitated by western blot analysis on whole cell extracts using anti-frataxin antibody, or anti-tubulin, as a loading control. The relative frataxin abundance was quantitated by densitometric analysis and normalized with tubulin levels. […]

[4] = molecular target: T5, frataxin in FRDA 203 lymphoblast cell line (Homo sapiens, UniProt Q16595); test: Frataxin accumulation in FRDA 203 patient-derived lymphoblasts (western blot); type: cell-based; settings: FRDA 203 lymphoblasts, 1 μM, 4 days, vs DMSO; five experiments, P<0.05
T5 construct: GM16798; host or cells: FRDA 798, FRDA 214 and FRDA 203 patient-derived lymphoblasts
T5 sequence (Q16595 42-210): T1 sequence (Q16595 42-210)
Description: The efficacy of a specific compound, UCM166, was tested in FRDA patients-derived cells. (The structure of UCM166 is as shown previously.) FRDA patient-derived lymphoblast cell line FRDA 203 was cultured in the presence of 1 μM of UCM166 or DMSO alone (as a control) for 4 days. Total cell extracts were resolved on SDS-PAGE and analyzed in a western blot with anti-frataxin antibody, or anti-tubulin, as a loading control. FIG. 7 represents the relative frataxin abundance as quantified by densitometric analysis and normalized with tubulin levels. The data represent the mean±S.E.M. from five different independent experiments. P-value was calculated with Student's t-test and was statistically significant (**P<0.05) compared to non-treated conditions.

[5] = tested on: aconitases activity in FRDA 214 lymphoblasts; test: Aconitase activity rescue in FRDA lymphoblasts; type: cell-based, human; settings: 5 days treatment
Description: Enzyme assays. For determinations of aconitases and citrate synthase activity, FRDA lymphoblasts were washed twice with ice-cold Dulbecco's Phosphate Buffered Saline (DPBS) and lysed in CelLytic M buffer (Sigma-Aldrich) supplemented with Complete protease inhibitor cocktail EDTA-free (Roche) and 2 mM trisodium citrate. Citrate was included to prevent the inactivation of iron-sulfur cluster of aconitases. Total aconitase activity was measured spectrophotometrically at 340 nm using the BIOXYTECH Aconitase-340™ Assay (OxisResearch™ 21041). The assay reactions, containing 150 μg of cell extract, were performed following the supplier's procedure, with the exception of temperature incubation at 25° C. Citrate synthase activity was assessed using 15 μg of cell extract with the Citrate Synthase Assay Kit (Sigma-Aldrich CS0720).
The aconitase activities were normalized with respect to citrate synthase ratios; one milliunit of enzyme was defined as the amount of protein that converted 1 nmol of NADP^+ in 1 min at 25° C.
Moreover, to validate a functional recovery of frataxin levels, rescue of cellular aconitases activity was evaluated in FRDA cells upon treatment with UCMs. […] Aconitases activity in cells derived from an unaffected carrier sibling (FRDA 215) is also shown for comparison.

Row | Compound | frataxin precursor accumulation [1] | mature frataxin accumulation [1] | frataxin ubiquitination (ratio of ubiquitinated frataxin to frataxin precursor) (frataxin ubiquitination) | change of protein Trp fluorescence (ΔF/F0) [2] | half-saturation binding constant, L1/2 [2] | fluorescence changes with denatured protein ([2]; frataxin precursor denaturated in 3M guanidinium hydrochloride) | mature frataxin accumulation in FRDA patient cells [3] | relative frataxin abundance (normalized with tubulin) [4] | aconitases activity (normalized to citrate synthase) [5] | toxicity in long-term cell treatment ([3]; FRDA lymphoblasts, long-term (5 days) treatment)
1 | C/C(=N\NC(=O)c1ccc(C)cc1C)c1ccc2c(c1)Nc1ccccc1S2 [UCM53] | induce frataxin precursor accumulation | accumulation of mature frataxin | significantly abrogate frataxin ubiquitination | strong fluorescence changes | lowest binding affinity constants | completely lost | significant accumulation of mature frataxin |  |  | 
2 | COc1ccccc1C(=O)N/N=C(\C)c1ccc2c(c1)Nc1ccccc1S2 [UCM166] |  |  |  |  |  |  |  | efficiently promotes frataxin accumulation |  | 
3 | C/C(=N\NC(=O)c1ccccc1)c1ccc2c(c1)Nc1ccccc1S2 [UCM108] | induce frataxin precursor accumulation | accumulation of mature frataxin |  | strong fluorescence changes | lowest binding affinity constants |  | significant accumulation of mature frataxin |  | significant increase in aconitases activity | 
4 | C/C(=N\NC(=O)c1cc2ccccc2cc1O)c1ccc2c(c1)Nc1ccccc1S2 [UCM71] | induce frataxin precursor accumulation | accumulation of mature frataxin | significantly abrogate frataxin ubiquitination |  |  |  |  |  |  | toxicity over a long-term treatment
